Laboratory results from publication PMC3038857, “Using Nuclear Receptor Activity to Stratify Hepatocarcinogens” (PLoS ONE, 2011).
Where two headings read alike, the source gives them in different places.

Key:
[1] = target: T1, AHR (aryl hydrocarbon receptor) (Homo sapiens, UniProt P35869); test: ATG_Ahr_CIS: Factorial reporter gene assay (multiplexed transcription reporter, HepG2); type: cell-based; conditions: HepG2 reporter
T1 construct: endogenous in cells; host or cells: HepG2
T1 sequence (P35869 11-848): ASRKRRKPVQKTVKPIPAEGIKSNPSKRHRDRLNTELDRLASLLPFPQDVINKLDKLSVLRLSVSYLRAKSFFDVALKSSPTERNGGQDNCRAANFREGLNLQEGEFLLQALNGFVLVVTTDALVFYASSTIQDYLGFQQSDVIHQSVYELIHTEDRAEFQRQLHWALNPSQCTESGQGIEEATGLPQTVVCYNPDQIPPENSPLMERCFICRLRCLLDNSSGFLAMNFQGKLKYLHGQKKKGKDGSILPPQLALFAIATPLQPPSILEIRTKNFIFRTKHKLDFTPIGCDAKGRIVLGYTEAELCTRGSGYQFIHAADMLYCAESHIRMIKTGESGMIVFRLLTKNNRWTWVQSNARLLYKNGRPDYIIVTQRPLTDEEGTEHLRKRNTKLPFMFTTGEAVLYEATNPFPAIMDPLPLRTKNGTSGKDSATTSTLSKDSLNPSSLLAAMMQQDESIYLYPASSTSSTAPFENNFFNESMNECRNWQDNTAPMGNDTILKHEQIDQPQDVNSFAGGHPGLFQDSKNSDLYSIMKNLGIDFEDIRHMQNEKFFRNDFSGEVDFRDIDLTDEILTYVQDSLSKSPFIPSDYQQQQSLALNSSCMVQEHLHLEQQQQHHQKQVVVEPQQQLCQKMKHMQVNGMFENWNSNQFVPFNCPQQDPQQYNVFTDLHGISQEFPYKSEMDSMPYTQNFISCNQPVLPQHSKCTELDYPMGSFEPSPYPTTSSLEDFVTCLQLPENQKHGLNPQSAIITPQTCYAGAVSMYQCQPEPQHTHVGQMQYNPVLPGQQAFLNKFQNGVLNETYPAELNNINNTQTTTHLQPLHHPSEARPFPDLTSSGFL
Procedure, shortened: (§1)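 HepG2 cells transfected with multiplexed reporter libraries: cis-acting binding-site reporters (CIS) and a one-hybrid nuclear-receptor trans system (TRANS). Chemicals tested at seven concentrations, starting at the maximum tolerated concentration with three-fold serial dilutions.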

[2] = test system: CYP2B6; test: CLZD_CYP2B6: Change in expression of CYP2B6 (primary human hepatocytes); type: cell-based; conditions: 24 hr
Procedure, shortened: (§2)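 Primary human hepatocytes exposed to 5 concentrations (0.004-40 µM) for 6, 24 or 48 hr; transcript levels measured by multiplexed quantitative nuclease protection assay. Markers of nuclear receptor pathways: CYP1A1 (AhR), CYP2B6 and ABCB1 (CAR), CYP3A4 (PXR).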

[3] = test system: CYP3A4; test: CLZD_CYP3A4: Change in expression of CYP3A4 (primary human hepatocytes); type: cell-based; conditions: 24 hr
Procedure, shortened: as §2

[4] = test system: Rat Liver; conditions: ref ToxRefDB, cited from earlier work
[5] = test system: Rat Liver; conditions: ref ToxRefDB, cited from earlier work; remark: listed apart in the source
[6] = test system: Rat Liver; conditions: ref ToxRefDB, cited from earlier work; remark: listed apart in the source
[7] = target: T2, CAR (NR1I3) (Homo sapiens, UniProt Q14994); test: ATG_PBREM_CIS: Factorial reporter gene assay (HepG2); type: cell-based; design: endogenous in cells; host or cells: HepG2
T2 sequence (Q14994 1-352): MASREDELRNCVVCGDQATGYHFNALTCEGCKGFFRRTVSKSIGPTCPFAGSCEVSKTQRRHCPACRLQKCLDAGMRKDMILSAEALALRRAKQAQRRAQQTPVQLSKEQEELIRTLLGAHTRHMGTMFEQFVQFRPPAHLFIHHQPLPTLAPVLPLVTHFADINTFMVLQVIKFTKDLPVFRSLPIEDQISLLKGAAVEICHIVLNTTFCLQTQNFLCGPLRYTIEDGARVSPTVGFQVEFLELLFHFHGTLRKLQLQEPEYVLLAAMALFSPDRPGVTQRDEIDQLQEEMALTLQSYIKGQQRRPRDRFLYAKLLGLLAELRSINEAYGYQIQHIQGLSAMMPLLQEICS
Experimental: (§3) A multiple reporter transcription unit (MRTU) library consisting of 48 transcription factor binding sites was transfected into the HepG2 human liver hepatoma cell line. In addition to the cis-acting reporter genes (CIS), a modification of the approach was used to generate a trans-system (TRANS) with a mammalian one-hybrid assay consisting of an additional 25 MRTU library reporting the activity of nuclear receptor super-family members. […] These assays were performed by Attagene Inc. (Morrisville NC) under contract to EPA.
(§4) In addition to the cis-acting reporter genes (CIS), a modification of the approach was used to generate a trans-system (TRANS) with a mammalian one-hybrid assay consisting of an additional 25 MRTU library reporting the activity of nuclear receptor super-family members. […] Chemicals were then tested in the CIS and TRANS assays at seven concentrations starting at the MTC and followed by three-fold serial dilutions. These assays were performed by Attagene Inc. (Morrisville NC) under contract to EPA. Detailed description of the methods, data and analysis methods for this dataset will be presented in a separate publication.

[8] = target: T3, PXR (NR1I2) (Homo sapiens, UniProt O75469); test: ATG_PXRE_CIS: Factorial reporter gene assay (HepG2); type: cell-based; design: endogenous in cells; host or cells: HepG2
T3 sequence (O75469 1-434): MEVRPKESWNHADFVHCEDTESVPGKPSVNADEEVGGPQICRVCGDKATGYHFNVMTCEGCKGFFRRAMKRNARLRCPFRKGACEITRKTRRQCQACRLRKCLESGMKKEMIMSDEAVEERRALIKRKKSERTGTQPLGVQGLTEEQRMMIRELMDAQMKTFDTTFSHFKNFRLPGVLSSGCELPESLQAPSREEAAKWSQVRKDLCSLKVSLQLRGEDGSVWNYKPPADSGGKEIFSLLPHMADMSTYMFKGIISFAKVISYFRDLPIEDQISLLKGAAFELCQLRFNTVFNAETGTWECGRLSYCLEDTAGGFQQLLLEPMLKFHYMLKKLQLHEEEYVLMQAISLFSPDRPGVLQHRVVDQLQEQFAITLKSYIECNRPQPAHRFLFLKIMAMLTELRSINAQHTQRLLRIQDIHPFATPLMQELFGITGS
Procedure, shortened: as §1

[9] = test system: ABCB1; test: CLZD_ABCB1: Change in expression of ABCB1 (primary human hepatocytes); type: cell-based; conditions: 24 hr
Experimental: (§5) This is a collection of multiplexed gene expression assays focused on Phase I and II xenobiotic metabolizing enzymes and transporters. Human primary cell cultures were treated with chemicals at 5 concentrations (0.004-40 [drawing 42] M) for 6, 24 and 48 hr. Concentration- and time-response profiles of chemicals were measured by the expression of key nuclear receptor target genes, activities of CYP1A enzymes (EROD), and cell morphology. Fourteen gene targets were monitored by quantitative nuclease protection assay including: six representative cytochrome P-450 genes, four hepatic transporters, three Phase II conjugating enzymes, and one endogenous metabolism gene involved in cholesterol synthesis. The target genes associated with nuclear receptor pathways are as follows: [drawing 43] and [drawing 44] with [drawing 45]; [drawing 46] , [drawing 47] , [drawing 48] , [drawing 49] , [drawing 50] and [drawing 51] with [drawing 52]; [drawing 53] , [drawing 54] , [drawing 55] and [drawing 56] with [drawing 57]; [drawing 58] with [drawing 59]; and [drawing 60] with [drawing 61] . Assays were run in primary human hepatocyte cultures by CellzDirect Invitrogen Inc. (Durham, NC), in collaboration with EPA.
(§6) Multiplexed Gene Expression in Human Primary Hepatocytes: This is a collection of multiplexed gene expression assays focused on Phase I and II metabolic enzymes and transporters. […] Fourteen gene targets were monitored by quantitative nuclease protection assay: six representative cytochrome P450 genes, four hepatic transporters, three Phase II conjugating enzymes, and one endogenous metabolism gene involved in cholesterol synthesis. Cells were exposed at 5 concentrations (0.004-40 µM) for 6, 24 or 48 hr. Gene targets are sentinels for five nuclear receptor signaling pathways: AhR, CAR, PXR, FXR, and PPARα. All gene are associated with nuclear receptor pathways: CYP1A1 and CYP1A2 with AHR; ABCB1, ABCG2, CYP2B6, CYP2C9, CYP2C19 and UGT1A1 with CAR; CYP3A4, GSTA2, SLCO1B1 and SULT2A1 with PXR; HMGCS2 with PPARA; and ABCB11 with FXR. […] Detailed description of the methods, data and analysis methods for this dataset will be presented in a separate publication.

[10] = test system: ABCB11; test: CLZD_ABCB11: Change in expression of ABCB11 (primary human hepatocytes); type: cell-based; conditions: 24 hr
Experimental: as §5, §6

[11] = test system: CYP1A1; test: CLZD_CYP1A1: Change in expression of CYP1A1 (primary human hepatocytes); type: cell-based; conditions: 24 hr
Procedure, shortened: as §2

[12] = test system: CYP1A2; test: CLZD_CYP1A2: Change in expression of CYP1A2 (primary human hepatocytes); type: cell-based; conditions: 24 hr
Procedure, shortened: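 Five-point concentration series (0.004-40 µM) applied to primary human hepatocytes; 6/24/48 hr timepoints; transcript quantified by multiplexed nuclease protection.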

[13] = target: T4, LXRa (NR1H3) (Homo sapiens, UniProt Q13133); test: ATG_LXRa_TRANS: Factorial reporter gene assay (HepG2); type: cell-based; conditions: HepG2
T4 construct: expressed in transfected cells; host or cells: HepG2
T4 sequence (Q13133 1-447): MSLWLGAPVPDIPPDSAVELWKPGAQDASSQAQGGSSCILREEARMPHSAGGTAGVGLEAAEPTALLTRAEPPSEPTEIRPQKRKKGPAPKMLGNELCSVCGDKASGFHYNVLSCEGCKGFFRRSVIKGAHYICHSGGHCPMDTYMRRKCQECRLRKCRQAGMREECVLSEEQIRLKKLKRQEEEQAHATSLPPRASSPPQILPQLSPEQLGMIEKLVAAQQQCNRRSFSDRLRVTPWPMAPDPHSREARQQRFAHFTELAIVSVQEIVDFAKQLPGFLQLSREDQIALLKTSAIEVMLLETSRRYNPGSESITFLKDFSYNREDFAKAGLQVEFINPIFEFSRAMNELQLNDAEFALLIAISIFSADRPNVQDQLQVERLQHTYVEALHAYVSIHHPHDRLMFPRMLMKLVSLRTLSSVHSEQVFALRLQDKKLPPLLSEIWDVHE
Experimental: as §3, §4

[14] = test system: LXRa (NR1H2); test: NCGC_LXR_Agonist: GAL4 BLAM Reporter gene assay: LXRa; type: cell-based, human; conditions: agonist mode
Experimental: These assays measure binding constants and enzyme inhibition values for nuclear receptors. The targets include [drawing 67] , [drawing 68] , [drawing 69] , [drawing 70] , [drawing 71] , [drawing 72] , [drawing 73] , [drawing 74] , [drawing 75] and [drawing 76] . Each of the nuclear receptor targets was measured in agonist mode. Assays were run at the NIH Chemical Genomics Center (Rockville, MD).
Cell-based HTS Assays: These assays measuring binding constants and enzyme inhibition values for nuclear receptors. The targets include AR, ER, FXR, LXR, PPARα, PPARδ, PPARγ, RXRα, RXRβ and PXR. Each of the nuclear receptor targets was measured in both agonist and antagonist mode, but the antagonist data is still undergoing analysis due to possible interference between cytotoxicity and assay activity, so antagonist mode data were not used in the present analysis. Assays were run at the NIH Chemical Genomics Center (Rockville, MD) as part of the Tox21 collaboration. […] The R^2 was required to be ≥0.5. Values where only the highest concentration exceeded 50% activity were excluded to eliminate weak or false positives. Detailed description of the methods, data and analysis methods for this dataset will be presented in a separate publication.

[15] = test system: Mouse Liver; conditions: chronic mouse study, liver; ref ToxRefDB; cited from earlier work

Compound: CCCN(CC)CC1COC2(CCC(C(C)(C)C)CC2)O1 (stereo not drawn) [r286]
- ATG_Ahr_CIS [1]: 4.444
- CLZD_CYP2B6_24 [2]: 4.532
- CLZD_CYP3A4_24 [3]: 5.192
- CHR_Rat_Liver_1_AnyLesion ([4]; chronic study, rat liver): 0
- CHR_Rat_Liver_2_PreneoplasticLesion ([5]; chronic study, rat liver): 0
- CHR_Rat_Liver_3_NeoplasticLesion ([6]; chronic study, rat liver): 0
- ATG_PBREM_CIS ([7]; HepG2 reporter): 4.721
- ATG_PXRE_CIS ([8]; HepG2 reporter): 4.886

Compound: C#CCOS(=O)OC1CCCCC1Oc1ccc(C(C)(C)C)cc1 (stereo not drawn) [r259]
- CLZD_ABCB1_24 [9]: 5.227
- CLZD_ABCB11_24 [10]: 4.813
- CLZD_CYP1A1_24 [11]: 4.821
- CLZD_CYP1A2_24 [12]: 5.07
- CLZD_CYP2B6_24 [2]: 5.314
- CHR_Rat_Liver_1_AnyLesion ([4]; rat, chronic study): 0
- CHR_Rat_Liver_2_PreneoplasticLesion ([5]; rat, chronic study): 0
- CHR_Rat_Liver_3_NeoplasticLesion ([6]; rat, chronic study): 0
- ATG_PBREM_CIS ([7]; HepG2): 5.854
- ATG_PXRE_CIS ([8]; HepG2): 6.18

Compound: O=C(NC(=O)c1c(F)cccc1F)Nc1ccc(OC(F)(F)C(F)OC(F)(F)F)c(Cl)c1 (stereo not drawn) [row 223]
- ATG_LXRa_TRANS [13]: 4.523
- NCGC_LXR_Agonist [14]: 4.536
- CHR_Mouse_Liver_1_AnyLesion [15]: 6
- CHR_Rat_Liver_1_AnyLesion ([4]; chronic rat study, liver): 6
- CHR_Rat_Liver_2_PreneoplasticLesion ([5]; chronic rat study, liver): 0
- CHR_Rat_Liver_3_NeoplasticLesion ([6]; chronic rat study, liver): 0
